PMC8305076, “Comprehensive Evaluation of Biological Effects of Pentathiepins on Various Human Cancer Cell Lines and Insights into Their Mode of Action” (International Journal of Molecular Sciences, 2021)
Read-outs that look alike come from different tables or passages of the source.

Key:
Assay type in all cases: cell-based, human
MCF-7 = assay: MTT cell viability assay
Procedure: Distinct MTT cell viability and crystal violet cell proliferation assays were performed to assess the cytotoxicity of the compounds 1–6 on 14 human cancer cell lines. In the viability assay, cells with intact mitochondria and thus active dehydrogenases are competent to convert MTT to the corresponding insoluble formazan. The formazan can be photometrically detected after solubilization and allows for indirect conclusions about the viability of the cells as an IC50 value. In the crystal violet assay, cells are stained by the binding of the dye to the chromatin, thus allowing for a quantification of biomass that remains adherent after a treatment in comparison with a control after a specific time. Potency is defined as the growth inhibitory concentration 50% (GI50).
In addition to performing the cell viability assay under normoxia (19% atmospheric oxygen), incubations were also conducted under hypoxic conditions, i.e., atmospheric oxygen levels of 1% during the treatment for 48 h. Hypoxia is a favorable condition of the tumor microenvironment that is connected with poor outcome. Therefore, the low oxygen condition mimics better the tumor environment. The biological effect of the pentathiepins under this condition provides insight into their dependency for oxygen, which has been postulated a key component in the proposed mechanism of action (Figure 3). Consistent with the proposed mechanism of action for five of the compounds, potency decreased under hypoxic conditions; in fact for 6, the half-maximal inhibitory concentration exceeded the highest tested concentration of 10 µM in four cell lines (Figure 6, Table S3). […] In contrast to the other compounds, in some cell lines, the cytotoxic effects of 1 were more pronounced under oxygen-reduced incubation conditions (Figure 6), indicating a tangential role of oxygen availability for this pentathiepin. Especially for the breast cancer cell line MCF-7, the cytotoxicity increased substantially, indicated by a decrease of the IC50 from >10.0 µM to about 1.0 µM.
The effect of the pentathiepins on the viability of the cell lines was assessed via an MTT assay, performed as previously described. Healthy and viable cells convert the yellow soluble 3-(4,5-dimethylthiazol-2-yl)-2,5-diphenyltetrazolium bromide to the insoluble purple corresponding formazan, which can be spectrophotometrically measured. For this assay, 5000 cells (1 250 for LCLC-103H) in 0.1 mL of medium were seeded per well of a 96-well plate and incubated at standard conditions for 24 h prior to treatment. A serial dilution of the test compounds was prepared in medium, covering final concentrations from 10.0 to 0.04 µM, and 0.1 mL of the working solution was added to each well in triplicate. After 48 h, 20 µL of a 2.5 mg/mL MTT in PBS solution was pipetted into each well and further incubated for 4 h at standard conditions. Thereafter, medium was replaced with 50 µL DMSO, and the plates were put on a shaker for 5 min and subsequently read at λ = 570 nm, with a SpectraMax 384plus (Molecular Devices, Sunnyvale, CA, USA). The cell viabilities of the treatment conditions were calculated in relation to a solvent control sample. The absolute IC50 was calculated via nonlinear regression followed by interpolation of the dose–response graphs in Prism 7 (GraphPad, San Diego, CA, USA). The IC90 was derived from the IC50 by using the slope factor of the dose–response graph with the tool QuickCalcs from GraphPad (GraphPad Software, San Diego, CA, USA).

seven cancer cell lines = assay: cell cycle analysis (summary); parameters: key: no impact (0); weak impact (+); strong impact (++); details: summary grade
Procedure: (§1) The potent cytotoxicity and the potential to inhibit the proliferation of cancer cells accompanied by DNA damage effects raised the question as to whether cell cycle progression might be affected as a result of treatment with pentathiepins.
(§2) Cells were harvested by trypsinization, collected in 1.5 mL tubes, and washed twice with PBS by centrifuging for 5 min at 500× g and discarding the supernatant after every step. For fixation, 500 µL of ice-cold ethanol (70%) was added dropwise under vortexing with a subsequent incubation on ice for 30 min. Then, the cells were centrifuged for 10 min at 4000 rpm and 4 °C, the supernatant was removed, and the cells were resuspended in 500 µL of PBS containing 25 µg/mL of PI and 100 µg/mL of RNase. The staining solution was incubated for 30 min, and the cell suspension was measured at λEx/Em = 488/655–730 nm using a MACSquant Analyzer 10 (Miltenyi Biotec, Teterow, Germany).

HAP-1.KO.GPx1 = assay: cell cycle analysis (PI staining); details: IC90, 24 h
Procedure: as §1, §2

DanG = assay: cell cycle analysis (PI staining); details: IC90, 24 and 48 h (Figure 19a)
Procedure: as §1, §2

HAP-1 = assay: cell cycle analysis (PI staining); details: IC90, 24 h
Procedure: as §1, §2

[1] = Homo sapiens, MCF7, 48 h, hypoxic (1% O2), read-out: IC50 MTT-H mean
[2] = Homo sapiens, MCF7, 48 h, normoxic (19% O2), read-out: IC50 MTT-N mean

SMILES | IC50 (MCF-7; [1]) [µM] | IC50 (MCF-7; [2]) [µM] | G0/G1 arrest (seven cancer cell lines) | G2/M arrest (seven cancer cell lines) | increase of cells in G2/M-phase (HAP-1.KO.GPx1) | increase of cells in sub G1-phase (HAP-1.KO.GPx1) | decrease of G0/G1-phase cells (DanG) | increase of cells in G2/M-phase (DanG) [%] | increase of cells in sub G1-phase (DanG) [%] | increase of cells in G2/M-phase (HAP-1) | increase of cells in sub G1-phase (HAP-1) | IC50 (MCF-7; 48 h, hypoxic (1% O2), read-out: IC50 MTT-H mean) [µM] | cell cycle distribution vs control (DanG)
CCOc1c2c(c3ccc(C(=O)N(CC)CC)cn13)SSSSS2 [Compound 4, 6-Ethoxy-N,N’-diethyl-[1,2,3,4,5]pentathiepino[6,7-a]indolizine-9-carboxamide] | 3.56 | 3.21 | 0 | + | ≤ 30% | up to 10% | roughly 15% | 6 | 8 | ≤ 30% | up to 10% |  | 
CCOc1c2c(c3ccc(C(=O)N4CCN(C(=O)c5ccc(F)cc5)CC4)cn13)SSSSS2 [Compound 5, (6-Ethoxy-[1,2,3,4,5]pentathiepino[6,7-a]indolizin-9-yl)(4-(4-fluorobenzoyl)piperazinyl)methanone] | 3.01 | 1.64 | 0 | + | ≤ 30% | up to 10% | roughly 15% | 6 | 8 | ≤ 30% | up to 10% |  | 
CCOc1c2c(c3cnc4[nH]c(-c5ccc(OC)cc5)cc4n13)SSSSS2 [Compound 1, 11-Ethoxy-2-(4-methoxyphenyl)-3H-[1,2,3,4,5]pentathiepino[6′,7′:3,4]pyrrolo[1,2-a]pyrrolo[2,3-e]pyrazine] | ~1 | > 10 | + | 0 | No such effects were detected |  |  |  |  | No such effects were detected |  | 0.97 | caused no differences from a normal cell cycle
CCOc1c2c(c3ccc(C(=O)N4CCOCC4)cn13)SSSSS2 [Compound 3, (6-Ethoxy-[1,2,3,4,5]pentathiepino[6,7-a]indolizin-9-yl)(morpholino)methanone] | 3.56 | 1.68 | 0 | + | ≤ 30% | up to 10% | roughly 15% | 6 | 8 | ≤ 30% | up to 10% |  | 
CCOc1c2c(c3ccc(C(=O)N4CCN(S(=O)(=O)c5ccc(C)cc5)CC4)cn13)SSSSS2 [Compound 6, (6-Ethoxy-[1,2,3,4,5]pentathiepino[6,7-a]indolizin-9-yl)(4-tosylpiperazinyl)methanone] | > 10 | 3.99 | + | 0 | No such effects were detected |  |  |  |  | No such effects were detected |  |  | caused no differences from a normal cell cycle
CCOc1c2c(c3ccc(C(=O)N4CCCCC4)cn13)SSSSS2 [Compound 2, (6-Ethoxy-[1,2,3,4,5]pentathiepino[6,7-a]indolizin-9-yl)(piperidinyl)methanone] | > 10 | 3.04 | 0 | + | ≤ 30% | up to 10% | roughly 15% | 6 | 8 | ≤ 30% | up to 10% |  | 
